Test results reported in PubChem BioAssay AID256 (DTP/NCI, 2004).
“And” between values parts separate entries of the source, which are not always exact repeats. Equal entries are not always repeated. Inconclusive results and toxic doses are left out. The calls were made as follows: active = survival T/C of 150% or more; inactive = T/C below 125% in these data.

Test system: CD2F1 mice, L1210 leukemia ip, survival T/C
Assay: NCI In Vivo Anticancer Drug Screen. Data for tumor model L1210 Leukemia (intraperitoneal) in CD2F1 (CDF1) mice
Details: higher = longer survival
In short: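 Antitumor effect is scored in animals hosting a serially transplanted tumor. Values compare compound-dosed animals against vehicle-only controls as a simple quotient.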

[1] = endpoint: mean survival time, dose: 100.0 mg/kg/injection, schedule: Q01DX009 (ip), vehicle: saline
[2] = endpoint: mean survival time, dose: 100.0 mg/kg/injection, schedule: Q01DX009 (ip), vehicle: saline with Tween-80
[3] = endpoint: mean survival time, dose: 200.0 mg/kg/injection, schedule: Q01DX009 (ip), vehicle: saline with Tween-80
[4] = endpoint: mean survival time, dose: 50.0 mg/kg/injection, schedule: Q01DX009 (ip), vehicle: saline with Tween-80
[5] = endpoint: mean survival time, dose: 100.0 mg/kg/injection, schedule: Q04DX003 (ip), vehicle: saline with Tween-80
[6] = endpoint: mean survival time, dose: 200.0 mg/kg/injection, schedule: Q04DX003 (ip), vehicle: saline with Tween-80
[7] = endpoint: mean survival time, dose: 100.0 mg/kg/injection, schedule: Q01DX001 (ip), vehicle: saline with Tween-80
[8] = endpoint: mean survival time, dose: 200.0 mg/kg/injection, schedule: Q01DX001 (ip), vehicle: saline with Tween-80
[9] = endpoint: mean survival time, dose: 400.0 mg/kg/injection, schedule: Q04DX003 (ip), vehicle: saline with Tween-80
[10] = endpoint: mean survival time, dose: 100.0 mg/kg/injection, schedule: Q01DX001 (ip), vehicle: saline
[11] = endpoint: mean survival time, dose: 400.0 mg/kg/injection, schedule: Q01DX009 (ip), vehicle: saline with Tween-80
[12] = endpoint: mean survival time, dose: 400.0 mg/kg/injection, schedule: Q01DX001 (ip), vehicle: saline with Tween-80
[13] = endpoint: mean survival time, dose: 12.5 mg/kg/injection, schedule: Q01DX009 (ip), vehicle: saline with Tween-80
[14] = endpoint: mean survival time, dose: 25.0 mg/kg/injection, schedule: Q01DX009 (ip), vehicle: saline with Tween-80

Measured: T/C

CCCSP(SCCC)SCCC
inactive: endpoint: mean survival time, dose: 50.0 mg/kg/injection, schedule: Q01DX001 (ip), vehicle: Klucel (hydroxypropylcellulose) (HPC) 107 % of control | endpoint: mean survival time, dose: 100.0 mg/kg/injection, schedule: Q01DX001 (ip), vehicle: Klucel (hydroxypropylcellulose) (HPC) 96 % of control | endpoint: mean survival time, dose: 200.0 mg/kg/injection, schedule: Q01DX001 (ip), vehicle: Klucel (hydroxypropylcellulose) (HPC) 101 % of control

CN(C)CC(=O)N/N=C\c1ccc([N+](=O)[O-])s1
inactive: endpoint: mean survival time, dose: 50.0 mg/kg/injection, schedule: Q01DX009 (ip), vehicle: saline 91 % of control | [1] 93 % of control

OC1CCC(CC2CCCCC2)CC1 (configuration not stated)
inactive: [2] 95 % of control | [3] 92 % of control

CC(C)(C)c1ccccc1O[Si](C)(C)C
inactive: [4] 105 % of control | [2] 94 % of control | [5] 97 % of control | [6] 94 % of control

O=C(O/N=C(\C(=O)c1ccccc1)c1ccccc1)c1ccc(Br)cc1
inactive: [7] 90 % of control | [8] 90 % of control

O=C1CSc2nc3ccccc3n21
inactive: endpoint: mean survival time, dose: 100.0 mg/kg/injection, schedule: Q01DX009 (ip), vehicle: other 98 % of control | endpoint: mean survival time, dose: 200.0 mg/kg/injection, schedule: Q01DX009 (ip), vehicle: other 98 % of control | endpoint: mean survival time, dose: 400.0 mg/kg/injection, schedule: Q01DX009 (ip), vehicle: other 105 % of control

CN1CCCC(OC(=O)N(C)C)C1 (configuration not stated)
inactive: [1] 96 % of control | endpoint: mean survival time, dose: 200.0 mg/kg/injection, schedule: Q01DX009 (ip), vehicle: saline 98 % of control

CC(C)c1cc(C(C)C)n2nc(N)nc2n1
inactive: [5] 106 % of control | [6] 98 % of control | [9] 97 % of control

O=C(O)C(O)Cn1ccccc1=O (configuration not stated)
inactive: endpoint: mean survival time, dose: 50.0 mg/kg/injection, schedule: Q01DX001 (ip), vehicle: saline 104 % of control | [10] 96 % of control | endpoint: mean survival time, dose: 200.0 mg/kg/injection, schedule: Q01DX001 (ip), vehicle: saline 101 % of control

ClC1=C(Cl)C2(Cl)C3C4CCC(C4)C3C1(Cl)C2(Cl)Cl (configuration not stated)
inactive: [2] 95 % of control and 107 % of control | [3] 93 % of control and 111 % of control | [11] 96 % of control and 105 % of control

Cc1cc(C)c(B(c2c(C)cc(C)cc2C)c2c(C)cc(C)cc2C)c(C)c1
inactive: [2] 100 % of control | [3] 94 % of control | [6] 90 % of control | [11] 94 % of control | [9] 96 % of control

CC(=O)Nc1cc(N(CCOS(C)(=O)=O)CCOS(C)(=O)=O)ccc1N=O
inactive: endpoint: mean survival time, dose: 0.25 mg/kg/injection, schedule: Q01DX009 (ip), vehicle: saline 117 % of control | endpoint: mean survival time, dose: 0.5 mg/kg/injection, schedule: Q01DX009 (ip), vehicle: saline 116 % of control | endpoint: mean survival time, dose: 1.0 mg/kg/injection, schedule: Q01DX009 (ip), vehicle: saline 95 % of control | endpoint: mean survival time, dose: 1.5 mg/kg/injection, schedule: Q04DX003 (ip), vehicle: saline 120 % of control | endpoint: mean survival time, dose: 2.0 mg/kg/injection, schedule: Q01DX009 (ip), vehicle: saline 95 % of control | endpoint: mean survival time, dose: 3.0 mg/kg/injection, schedule: Q04DX003 (ip), vehicle: saline 115 % of control | endpoint: mean survival time, dose: 6.0 mg/kg/injection, schedule: Q04DX003 (ip), vehicle: saline 107 % of control

O=C1C=CC(=O)C(c2cn(C3CC(O)C(CO)O3)c(=O)[nH]c2=O)=C1 (configuration not stated)
inactive: endpoint: median survival time, dose: 12.5 mg/kg/injection, schedule: Q01DX005 (ip), vehicle: saline with Tween-80 111 % of control | endpoint: median survival time, dose: 25.0 mg/kg/injection, schedule: Q01DX005 (ip), vehicle: saline with Tween-80 111 % of control | endpoint: median survival time, dose: 50.0 mg/kg/injection, schedule: Q01DX005 (ip), vehicle: saline with Tween-80 108 % of control | endpoint: median survival time, dose: 100.0 mg/kg/injection, schedule: Q01DX005 (ip), vehicle: saline with Tween-80 121 % of control | endpoint: median survival time, dose: 200.0 mg/kg/injection, schedule: Q01DX005 (ip), vehicle: saline with Tween-80 105 % of control

CCCCOC(=O)C(C(=O)OCCCC)(C(=O)OCCCC)C(C(=O)OCCCC)(C(=O)OCCCC)C(=O)OCCCC
inactive: [10] 90 % of control | endpoint: mean survival time, dose: 400.0 mg/kg/injection, schedule: Q01DX001 (ip), vehicle: saline 96 % of control

Cc1cc(=O)n(C)c2ccccc12
inactive: endpoint: mean survival time, dose: 50.0 mg/kg/injection, schedule: Q04DX003 (ip), vehicle: saline with Tween-80 95 % of control | [5] 103 % of control | [6] 97 % of control

Cc1ccnc(-n2c(N)cc(=O)[nH]c2=S)c1
inactive: [5] 97 % of control | [6] 97 % of control | [9] 96 % of control

Cc1noc(/N=C/c2cccc(Cl)c2)c1C
inactive: endpoint: mean survival time, dose: 100.0 mg/kg/injection, schedule: Q04DX003 (ip), vehicle: saline 96 % of control | endpoint: mean survival time, dose: 200.0 mg/kg/injection, schedule: Q04DX003 (ip), vehicle: saline 101 % of control | endpoint: mean survival time, dose: 400.0 mg/kg/injection, schedule: Q04DX003 (ip), vehicle: saline 101 % of control

CC1(C)CC(=O)C=C(N2CCC(CCCC3CCN(C4=CC(=O)CC(C)(C)C4)CC3)CC2)C1
inactive: [4] 102 % of control | [7] 100 % of control | [2] 95 % of control | [8] 93 % of control

CCCCCCC[CH2][Sn]1([CH2]CCCCCCC)[O]C2C(CO)OC(n3cnc4c(=O)[nH]c(N)nc43)C2[O]1 (configuration not stated)
inactive: endpoint: mean survival time, dose: 1.56 mg/kg/injection, schedule: Q01DX005 (ip), vehicle: other 96 % of control | endpoint: mean survival time, dose: 3.13 mg/kg/injection, schedule: Q01DX005 (ip), vehicle: other 98 % of control | endpoint: mean survival time, dose: 6.25 mg/kg/injection, schedule: Q01DX005 (ip), vehicle: other 102 % of control | endpoint: mean survival time, dose: 12.5 mg/kg/injection, schedule: Q01DX005 (ip), vehicle: other 104 % of control and 106 % of control

CC(Br)C(=O)c1ccc2ncccc2c1 (configuration not stated)
inactive: endpoint: mean survival time, dose: 12.5 mg/kg/injection, schedule: Q04DX002 (ip), vehicle: saline + alcohol 98 % of control | endpoint: mean survival time, dose: 25.0 mg/kg/injection, schedule: Q04DX002 (ip), vehicle: saline + alcohol 101 % of control | endpoint: mean survival time, dose: 50.0 mg/kg/injection, schedule: Q04DX002 (ip), vehicle: saline + alcohol 95 % of control

CCOC(=O)CC(=O)NCCc1ccccc1OC
inactive: [7] 102 % of control | [8] 105 % of control | [12] 102 % of control

C=CCCCCCCCCC(=O)NCc1nc2ccccc2[nH]1
inactive: [2] 91 % of control | [3] 96 % of control | [11] 96 % of control

C[N+](C)(Cc1ccccc1)C1c2ccccc2-c2ccc(Cl)cc21 (configuration not stated)
inactive: endpoint: mean survival time, dose: 50.0 mg/kg/injection, schedule: Q04DX002 (ip), vehicle: saline with Tween-80 103 % of control

C=C1C(=O)OC2/C=C(\CO)CC/C=C(\CO)CC(OC(=O)C(C)C)C12 (configuration not stated)
inactive: endpoint: mean survival time, dose: 3.75 mg/kg/injection, schedule: Q01DX009 (ip), vehicle: Klucel (hydroxypropylcellulose) (HPC) 100 % of control | endpoint: mean survival time, dose: 7.5 mg/kg/injection, schedule: Q01DX009 (ip), vehicle: Klucel (hydroxypropylcellulose) (HPC) 88 % of control | endpoint: mean survival time, dose: 15.0 mg/kg/injection, schedule: Q01DX009 (ip), vehicle: Klucel (hydroxypropylcellulose) (HPC) 97 % of control | endpoint: mean survival time, dose: 30.0 mg/kg/injection, schedule: Q01DX009 (ip), vehicle: Klucel (hydroxypropylcellulose) (HPC) 105 % of control

COC(=O)CC1(C(=O)OC)OC(=O)c2ccccc2N1C (configuration not stated)
inactive: [2] 103 % of control | [3] 106 % of control | [11] 101 % of control

O=C(NC(Cc1ccc(I)cc1)C(=O)O)c1ccc(Br)cc1 (configuration not stated)
inactive: endpoint: median survival time, dose: 25.0 mg/kg/injection, schedule: Q01DX009 (ip), vehicle: sodium bicarbonate 98 % of control | endpoint: median survival time, dose: 50.0 mg/kg/injection, schedule: Q01DX009 (ip), vehicle: sodium bicarbonate 101 % of control | endpoint: median survival time, dose: 100.0 mg/kg/injection, schedule: Q01DX009 (ip), vehicle: sodium bicarbonate 101 % of control | endpoint: median survival time, dose: 200.0 mg/kg/injection, schedule: Q01DX009 (ip), vehicle: sodium bicarbonate 96 % of control

COC(OC)c1ccc(Cl)nc1
inactive: [7] 98 % of control | [2] 96 % of control | [8] 101 % of control | [3] 94 % of control | [12] 101 % of control | [11] 92 % of control

CCCCCCCCCCCCSC1=C(Cl)C(=O)C(OC)=C(OC)C1=O
inactive: endpoint: mean survival time, dose: 6.25 mg/kg/injection, schedule: Q01DX009 (ip), vehicle: saline with Tween-80 91 % of control | [13] 94 % of control | [14] 95 % of control | [4] 93 % of control

COc1ccc(NC(=O)Nc2ccc(C)c([N+](=O)[O-])c2)c(OC)c1
inactive: [13] 97 % of control | [14] 103 % of control | [4] 88 % of control and 94 % of control
